Experimental findings from patent publication US20250034161A1, “SPIROCYCLIC COMPOUND AS KRAS-G12C INHIBITOR” (Shanghai Euregen Biopharma Co., Ltd., priority 2020, published 2025) are described below.

As a reminder, the IC50 is the concentration that gives 50% inhibition. Low values mean higher potency, high ones lower potency.

Each structure is given as a SMILES string.

Series [1] deals with A549(G12S). Description: Cell selectivity test, proliferation inhibition A549. It is filed as cell-based. The settings on record: Homo sapiens, 72 hours. The text has this:
(§1) • 1. Test purpose: to detect the proliferation inhibition of the test compounds on NCI-H23, NCI-H2122, HCC827, Mia paca2, A549 and SW837 cell lines. • 2. […] No. FND500); Penicillin-streptomycin was purchased from Gibco (Art. No. 15140-122); 0.25% trypsin-ethylenediaminetetraacetic acid digestive juice (Trypsin-EDTA) was purchased from Gibco (Art. No. 25200-072); dimethyl sulfoxide (DMSO) was purchased from Sigma (Art. No. D2650); 96-well cell plate was purchased from Corning (Art. No. 3610); incubator was purchased from NuAire (model number: NU-5700E); Biosafety cabinet was purchased from AuAire (model number: NU-543-600S); Inverted microscope was purchased from Nikon (Art. No. TS-100); Automated cell counter was purchased from Life technologies (model number: Countess II); Microplate reader was purchased from PerkinElmer (model number: Envision); the data processing software was GraphPad Prism 5.0. […]

Series [2] relates to Mia paca2(G12C). Description: Cell selectivity test, proliferation inhibition Mia paca2. The class given is cell-based. Particulars: Homo sapiens, MIA PaCa-2, 72 hours.
Description: as §1

For series [3], the target named is CYP 3A4 (Homo sapiens, UniProt P08684). Description: CYP inhibition test, human liver microsomes, CYP3A4. The settings on record: IC50(μM). Here is the method: • 1. Test purpose: to evaluate the inhibitory ability of some of the example compounds of the present invention against CYP1A2, 2B6, 2C8, 2C9, 2C19, 2D6 and 3A4 via human liver microsomes. • 2. […] Test method:
• 1. K/Mg buffer: the components were 0.1 mol/L potassium phosphate and 5 mmol/L magnesium chloride with pH 7.4±0.1, preheated. • 2. Solution of the test compound: the test compound was dissolved in dimethyl sulfoxide to prepare a stock solution of 10 mmol/L. 8 μL of 10 mmol/L stock solution was transferred to a 96-well plate containing 12 μL of acetonitrile as the highest concentration point, at 3-fold dilution, for 8 concentrations. • 3. […] Human liver microsomal stock solution: human liver microsomes were dissolved in 0.1 mol/L K/Mg buffer to obtain 20 mg/mL stock solution. • 5. Human liver microsomal working solution: 10 μL of 20 mg/mL human liver microsomal stock solution was taken and added into 990 μL of 0.1 mol/L K/Mg buffer to prepare 0.2 mg/mL human liver microsomal solution. • 6.
600 μL of 0.2 mg/mL human liver microsomal solution and 3 μL of stepwise diluted test compound solution were added to the 96-well plate. 30 μL of the above solution was added on the 96-well plate followed by the addition of 15 μL of the corresponding substrate solution. The 96-well plate and the NADPH solution were pre-incubated at 37° C. for 5 minutes, and 15 μL of NADPH solution was added to the 96-well plate to start the reaction. The assay plate was incubated at 37° C. for 5 minutes for 3A4, 10 minutes for 1A2, 2B6 and 2C9, 20 minutes for 2C8 and 2D6, and 45 minutes for 2C19. Then the reaction was terminated by 180 μL of acetonitrile containing internal standard substance. After quenching, the plate was shook for 10 minutes (600 rpm/min) and then centrifuged at 6000 rpm for 15 minutes. 80 μL of supernatant was taken from each well and transferred to a 96-well sample plate containing 120 μL of ultrapure water for LC-MS/MS analysis.
(In general: Liver microsomes are a subcellular fraction often used to study metabolism.)

The nature of series [4]: Plasma protein binding assay (equilibrium dialysis), mouse plasma. Particulars: pH 7.4, Mice plasma, equilibrium dialysis 5 hours, read-out: Plasma protein binding rate (%) (converted). The class given is in vitro ADME. As to the method: • 1. Test purpose: to evaluate the protein binding rate of the test compound in human, dog, monkey, rat and mouse plasma by equilibrium dialysis; • 2. […] Experimental methods: • 0.1 mol/L sodium phosphate and 0.15 mol/L sodium chloride buffer with pH 7.4±0.1 was preheated;
Preparation of plasma containing test substance: the test compound was dissolved in DMSO to prepare a 10 mmol/l stock solution. 5 μL of stock solution was taken and diluted with 95 μL of acetonitrile to obtain solution A (0.5 mmol/L). 8 μL of solution A was taken and diluted with 192 μL of 0.1 mol/L sodium phosphate buffer to obtain solution B (0.02 mmol/L). 570 μL of plasma was added into a 96-well plate followed by the addition of 30 μL of solution B. The final concentration was 1 μmol/L with 0.01% DMSO.
The plate was shook at 600 rpm for 10 minutes, covered and stored in a freezer (−20° C.).
T5 sample preparation (in triplicate): the dialysis device was added with 100 μL of buffer on its receiver side and 100 μL of plasma containing the test compound on its doner side. And the dialysis device was then shook at 37° C. and 120 rpm for 5 hours. At the end of culture, 25 μL of plasma containing the test substance was taken from the plasma side and then added to a 96-well plate, followed by the addition of 25 μL of buffer and 200 μL of acetonitrile solution containing internal standard. […]

Where [5] appears, read: CYP 3 A4-M, substrate midazolam.
[6] abbreviates: CYP 3 A4-T, substrate testosterone.

CYP 3A4, sequence (P08684 whole entry): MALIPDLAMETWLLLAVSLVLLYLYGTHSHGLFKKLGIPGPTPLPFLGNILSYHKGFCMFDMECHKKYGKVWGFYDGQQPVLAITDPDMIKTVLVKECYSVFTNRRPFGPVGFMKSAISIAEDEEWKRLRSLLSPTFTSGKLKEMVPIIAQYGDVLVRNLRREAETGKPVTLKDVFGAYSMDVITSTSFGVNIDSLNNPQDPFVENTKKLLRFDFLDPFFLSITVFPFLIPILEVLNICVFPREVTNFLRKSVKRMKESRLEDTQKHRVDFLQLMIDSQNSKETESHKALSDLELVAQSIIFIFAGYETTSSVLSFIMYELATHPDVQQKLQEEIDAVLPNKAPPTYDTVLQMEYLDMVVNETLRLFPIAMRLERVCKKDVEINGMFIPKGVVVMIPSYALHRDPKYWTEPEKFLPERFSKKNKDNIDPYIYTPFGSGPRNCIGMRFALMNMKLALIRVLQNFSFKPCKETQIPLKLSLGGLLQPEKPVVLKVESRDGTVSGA

For the compound `C=CC(=O)N1CCN(c2nc(=O)n(-c3c(C)ccnc3C(C)C)c3nc(-c4c(O)cccc4F)c(F)cc23)[C@@H](C)C1` [AMG510], the half-inhibitory concentration (IC50) in series [1] was more than 10 µM; in series [2], 0.0157 µM; in series [3] (setting [5]) it was 5.07 µM; in series [3] (setting [6]) it was more than 10 µM. Besides, the fraction unbound at 5 h, 1 μmol/L in series [4] is 0.091.

As for `C=C(F)C(=O)N1CCN(c2nc(OC[C@@H]3CCCN3C)nc3c2CCN(c2cccc4cccc(Cl)c24)C3)C[C@@H]1CC#N` [MRTX849], the half-maximal inhibitory concentration (IC50) is 6.83 µM in series [3] (setting [5]) and more than 10 µM in series [3] (setting [6]). The fraction unbound at 5 h, 1 μmol/L in series [4] was 0.004.
